Measured values from US6780871B2, “Methods and compositions for treating addiction disorders” (Albany Medical College, priority 2001, dated 2004).

How the values were obtained:
[1] = tested on: nicotine self-administration; assay: nicotine self-administration; assay type: in vivo, rat; details: Example 7, FIGS. 11-12: mecamylamine 0.1 mg/kg i.p., 18-methoxycoronaridine 0.5 mg/kg i.p., dextromethorphan 0.5 mg/kg s.c., bupropion 5 mg/kg i.p.; 5-8 rats
[2] = tested on: methamphetamine self-administration; assay: intravenous methamphetamine self-administration; assay type: in vivo, rat
5-HT3A receptors = target: T1, 5-HT3A receptors (Mus musculus, UniProt P23979); assay: whole-cell patch-clamp of transfected HEK293 cells, 5-HT3A, 100 μM serotonin; assay type: cell-based
T1 construct: expressed in transfected cells; host or cells: HEK293 (ATCC CRL1573), transient transfection
T1 sequence (P23979 24-489): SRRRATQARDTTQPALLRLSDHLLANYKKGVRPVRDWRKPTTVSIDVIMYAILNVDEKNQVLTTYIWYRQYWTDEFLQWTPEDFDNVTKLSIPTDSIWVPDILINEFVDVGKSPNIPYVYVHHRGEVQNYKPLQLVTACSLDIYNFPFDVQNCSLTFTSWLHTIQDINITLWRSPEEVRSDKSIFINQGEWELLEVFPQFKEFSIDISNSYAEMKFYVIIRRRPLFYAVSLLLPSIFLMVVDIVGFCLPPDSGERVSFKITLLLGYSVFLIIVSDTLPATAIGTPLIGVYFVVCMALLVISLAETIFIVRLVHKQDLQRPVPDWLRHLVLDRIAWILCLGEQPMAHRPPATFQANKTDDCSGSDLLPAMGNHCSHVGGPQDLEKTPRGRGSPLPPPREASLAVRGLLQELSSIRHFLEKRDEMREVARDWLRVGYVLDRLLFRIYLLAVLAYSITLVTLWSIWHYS
Description: (§1) Human embryonic kidney 293 (HEK293) fibroblasts (ATCC CRL1573) were cultured in minimal essential medium supplemented with 10% fetal bovine serum and 2 mM glutamine (Life Technologies, Rockville, Md.). Cells were plated on poly-D-lysine-coated 35 mm nunc dishes, transfected by the LipofectaminePLUS method (Life Technologies), and examined functionally between 18-48 h post transfection. The following receptor subunit cDNAs were used: nAChR-α3 (nicotinic acetylcholine receptor-α3; accession no. L31621), nAChR-α4 (accession no. L31620), nAChR-β2 (accession no. L31622), nAChR-β4 (accession no. U42976), 5-HT3R-A (5-HT3A receptor; accession no. M74425), NR1 (N-methyl-D-aspartate receptor 1; accession no. X63255), NR2A (accession no. X91561), and NR2B (accession no. M91562). The nAchR and NR clones were rat; the 5-HT3R-A clone was mouse. Co-transfection of enhanced green fluorescent protein (“EGFP”) (10% of total cDNA) provided a marker to identify transfected cells. Transfected cells were selected for EGFP expression and examined by voltage-clamp recording in the whole-cell configuration using an Axopatch 200B patch-clamp amplifier (Axon Instruments, Foster City, Calif.). Thin-walled borosilicate glass microelectrodes (TW150F, World Precision Instruments, Sarasota, Fla.) had resistances of 3-5 MΩ when filled with an internal solution containing (in mM): 135 CsCl, 10 CsF, 10 HEPES (N-[2-hydroxyethyl]piperazine-N′-[2-ethanesulfonic acid]), 5 EGTA (ethylene glycol-bis[β-aminoethyl ether]-N,N,N′,N′-tetraacetic acid), 1 MgCl2, 0.5 CaCl2, pH 7.2. Whole-cell capacitance and series resistance were recorded and adequately compensated using the available circuitry of the amplifier. Current responses were filtered at 1 kHz with an 8-pole Bessel filter (Cygnus Technologies, Delaware Water Gap, Pa.), digitized at 3 kHz, and stored on a Macintosh PowerPC-G3 computer using an ITC-16 interface (Instrutech, Great Neck, N.Y.) under control of the data acquisition and analysis program Synapse (Synergy Research, Gaithersburg, Md.). Cells were continuously superfused with extracellular solution containing (in mM): 150 NaCl, 3 KCl, 5 HEPES, 1 MgCl2, 1.8 CaCl2, 10 glucose, and 0.1 mg/ml phenol red, pH 7.3 (MgCl2 was omitted from all solutions used for the study of NMDA receptors). […] Control, agonist, and drug solutions were applied to individual cells by rapid perfusion. Solutions were driven by a syringe pump through a flowpipe having 4 inputs that converge at a single common output of approximately 100 μm diameter. Rapid switching between inputs was achieved using a set of upstream solenoid valves (Lee Co., Westbrook, Conn.) under computer control; the solution exchange rate was ˜5 ms as measured from liquid junction currents.
(§2) Transfected HEK293 cells expressing 5-HT3A receptors were voltage-clamped to −70 mV and stimulated with 100 μM serotonin at 30 s intervals. […] This is shown in FIG. 4, where open bars depict the timing of agonist application, filled bars depict the timing of co-application of 20 μM IBO or 20 μM 18MC, and inhibition was measured relative to control at the end of the drug application (indicated by arrows).

α3β4 nACh receptors = target: T2, α3β4 nACh receptors (Rattus norvegicus, UniProt P09483+P12390); assay: whole-cell patch-clamp of transfected HEK293 cells, neuronal nACh receptors, 300 μM ACh; assay type: cell-based
T2 construct: expressed in transfected cells; host or cells: HEK293 (ATCC CRL1573), transient transfection
T2 sequence (P09483 31-630): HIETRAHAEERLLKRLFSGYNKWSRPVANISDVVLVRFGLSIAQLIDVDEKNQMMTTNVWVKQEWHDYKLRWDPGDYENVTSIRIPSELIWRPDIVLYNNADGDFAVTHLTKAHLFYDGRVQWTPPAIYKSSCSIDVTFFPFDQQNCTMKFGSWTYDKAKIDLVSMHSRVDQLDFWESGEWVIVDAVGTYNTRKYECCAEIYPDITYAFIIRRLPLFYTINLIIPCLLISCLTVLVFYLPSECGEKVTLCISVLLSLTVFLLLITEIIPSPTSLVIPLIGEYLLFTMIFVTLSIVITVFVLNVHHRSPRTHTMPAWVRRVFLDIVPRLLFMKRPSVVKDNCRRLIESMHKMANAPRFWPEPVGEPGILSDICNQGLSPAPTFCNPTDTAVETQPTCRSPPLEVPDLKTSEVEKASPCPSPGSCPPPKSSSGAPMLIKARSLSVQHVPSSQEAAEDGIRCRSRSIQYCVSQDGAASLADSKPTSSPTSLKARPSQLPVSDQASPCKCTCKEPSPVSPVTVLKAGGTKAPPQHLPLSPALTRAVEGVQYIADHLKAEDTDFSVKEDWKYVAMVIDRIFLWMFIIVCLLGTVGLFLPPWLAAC
T2 sequence (P12390 25-500): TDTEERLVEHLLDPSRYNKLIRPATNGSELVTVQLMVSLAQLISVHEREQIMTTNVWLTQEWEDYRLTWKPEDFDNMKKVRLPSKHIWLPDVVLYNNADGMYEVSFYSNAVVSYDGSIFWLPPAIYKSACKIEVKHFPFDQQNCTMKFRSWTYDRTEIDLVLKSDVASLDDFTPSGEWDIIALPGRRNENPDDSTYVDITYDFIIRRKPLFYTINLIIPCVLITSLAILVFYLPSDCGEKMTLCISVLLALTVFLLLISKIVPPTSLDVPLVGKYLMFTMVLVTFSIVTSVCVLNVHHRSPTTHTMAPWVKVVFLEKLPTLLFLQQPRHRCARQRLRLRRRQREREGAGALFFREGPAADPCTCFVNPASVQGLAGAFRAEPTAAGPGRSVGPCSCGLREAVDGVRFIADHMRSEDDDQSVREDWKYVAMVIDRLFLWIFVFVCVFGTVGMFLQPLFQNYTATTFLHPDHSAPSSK
Description: as §1
Transfected HEK293 cells expressing various receptor subunit cDNAs were examined by whole-cell patch-clamp recording with fast perfusion of agonist and drug solutions. […] Transfected HEK293 cells expressing α3β4 nACh receptors were voltage-clamped to −70 mV and stimulated with 1 mM ACh at 30 s intervals. […] In FIG. 1A, open bars depict the timing of ACh application; filled bars depict the timing of co-application of 20 μM IBO or 20 μM 18MC; and inhibition was measured relative to control at the end of the drug application (indicated by arrows). […] The data presented in FIG. 1B are mean±SEM for 3-14 cells per point, and curve fits are given for the logistic equation: I=Imax/(1+([drug]/IC50)). […] In this case, transfected HEK293 cells expressing α3β4 nACh receptors were voltage-clamped to −70 mV and stimulated with 300 μM ACh at 30 s intervals.

NR1/2B receptors = target: T3, NR1/2B receptors (Rattus norvegicus, UniProt P35439+Q00960); assay: whole-cell patch-clamp of transfected HEK293 cells, NR1/2B, 100 μM glutamate plus 10 μM glycine; assay type: cell-based
T3 construct: expressed in transfected cells; host or cells: HEK293 (ATCC CRL1573), transient transfection
T3 sequence (Q00960 27-1482, other chains not shown): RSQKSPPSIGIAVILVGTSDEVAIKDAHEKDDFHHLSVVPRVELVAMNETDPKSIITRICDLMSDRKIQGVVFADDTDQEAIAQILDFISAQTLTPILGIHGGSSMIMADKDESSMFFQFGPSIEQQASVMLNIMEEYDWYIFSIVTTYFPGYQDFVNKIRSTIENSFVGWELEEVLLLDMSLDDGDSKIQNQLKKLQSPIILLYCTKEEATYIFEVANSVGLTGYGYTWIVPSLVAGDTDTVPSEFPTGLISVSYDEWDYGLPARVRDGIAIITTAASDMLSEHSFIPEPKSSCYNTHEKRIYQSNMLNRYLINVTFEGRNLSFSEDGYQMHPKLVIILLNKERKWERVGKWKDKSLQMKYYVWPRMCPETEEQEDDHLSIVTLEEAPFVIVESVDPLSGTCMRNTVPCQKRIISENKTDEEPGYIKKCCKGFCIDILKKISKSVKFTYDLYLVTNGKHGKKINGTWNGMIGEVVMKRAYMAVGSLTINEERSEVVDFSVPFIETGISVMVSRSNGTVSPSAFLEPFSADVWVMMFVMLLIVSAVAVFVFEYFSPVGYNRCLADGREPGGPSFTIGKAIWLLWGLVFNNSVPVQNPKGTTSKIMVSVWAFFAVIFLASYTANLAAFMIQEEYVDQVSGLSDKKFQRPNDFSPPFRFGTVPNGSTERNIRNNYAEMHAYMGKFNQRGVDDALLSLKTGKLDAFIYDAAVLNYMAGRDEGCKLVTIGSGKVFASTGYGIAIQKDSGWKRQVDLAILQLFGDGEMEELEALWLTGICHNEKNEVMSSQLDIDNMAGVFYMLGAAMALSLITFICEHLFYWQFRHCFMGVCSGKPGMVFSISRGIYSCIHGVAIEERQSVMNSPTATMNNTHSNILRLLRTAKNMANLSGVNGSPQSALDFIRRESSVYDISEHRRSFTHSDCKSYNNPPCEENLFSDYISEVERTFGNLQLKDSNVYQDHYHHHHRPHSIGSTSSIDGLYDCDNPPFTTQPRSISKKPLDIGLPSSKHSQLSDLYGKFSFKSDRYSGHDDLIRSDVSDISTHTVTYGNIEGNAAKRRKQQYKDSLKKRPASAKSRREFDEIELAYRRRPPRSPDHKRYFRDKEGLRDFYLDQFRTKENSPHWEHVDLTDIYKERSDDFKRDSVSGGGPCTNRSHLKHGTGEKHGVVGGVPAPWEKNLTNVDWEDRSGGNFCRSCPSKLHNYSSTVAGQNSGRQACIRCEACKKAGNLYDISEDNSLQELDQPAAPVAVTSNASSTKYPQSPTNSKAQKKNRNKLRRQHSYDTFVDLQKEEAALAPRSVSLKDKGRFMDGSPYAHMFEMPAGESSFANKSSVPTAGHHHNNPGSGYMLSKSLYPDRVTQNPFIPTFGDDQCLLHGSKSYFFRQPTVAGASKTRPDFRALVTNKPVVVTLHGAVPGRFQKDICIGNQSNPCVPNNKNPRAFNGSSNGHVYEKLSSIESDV
Description: as §1
as §2, with “To study these, transfected” for “Transfected”, “NR1/2A or NR1/2B” for “5-HT3A”, “glutamate plus 10 μM glycine” for “serotonin”, “In FIGS. 3A and 3B,” for “This is shown in FIG. 4, where”

For `COCC[C@H]1CC2CN3CCc4c([nH]c5ccccc45)[C@](C(=O)OC)(C2)[C@H]13` [18-methoxycoronaridine], the “effect on nicotine self-administration (percent of baseline)” value [1] was “none of the drugs administered alone, significantly decreased”, the “effect on methamphetamine self-administration (percent of baseline)” value ([2]; Example 5, FIG. 6: mecamylamine 1 mg/kg i.p., 18-methoxycoronaridine 2 mg/kg i.p., dextromethorphan 5 mg/kg s.c., 6-7 rats) was “none of the drugs administered alone, significantly decreased” and the “effect on methamphetamine self-administration (percent of baseline)” value ([2]; Example 6, FIG. 9: mecamylamine 1 mg/kg i.p., 18-methoxycoronaridine 5 mg/kg i.p., dextromethorphan 10 mg/kg s.c., bupropion 10 mg/kg i.p., 5-9 rats) was “none of the drugs administered alone, significantly decreased”. For the same compound, the “response to drug applied alone (agonist activity)” value (“response to drug applied alone” for short) (5-HT3A receptors; 20 μM drug alone) was “did not produce any response”, the “inhibition of serotonin-evoked responses” value (5-HT3A receptors; 20 μM drug with 100 μM serotonin, FIG. 4) was 50±3% and the IC50 (5-HT3A receptors; approximate, from 20 μM data, read-out: IC50 at 5-HT3 receptors) was about 20 µM. For the same compound, the “inhibition of ACh-evoked response” value (α3β4 nACh receptors; 5 μM drug with 300 μM ACh) was “no apparent inhibition”, the “response to drug applied alone” value (α3β4 nACh receptors; 20 μM drug alone, -70 mV) was “did not produce any response” and the “inhibition of ACh-evoked response” value (α3β4 nACh receptors; 20 μM drug with 300 μM ACh, FIG. 2) was 8 ±4%. For the same compound, the “response to drug applied alone” value (NR1/2B receptors; 20 μM drug alone) was “did not produce any response” and the “inhibition of agonist-evoked response” value (NR1/2B receptors; concentrations up to 20 μM, N=5, FIG. 3B) was “failed to inhibit”.
